According to ChEMBL document CHEMBL1201862, “PubChem BioAssay data set” (2004):
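Five compound concentrations were applied to cells in 96-well plates for 48 hours; endpoints were derived by simple linear interpolation of the resulting dose-response curve. The concentration for 50% growth inhibition is given as GI50.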 Active and inactive are the calls of the source. No stated cut-off is given here; in the data, active = GI50 up to about 1.1 µM and inactive = higher.

Experiments:
Experiment in all cases: NCI-60 cell line screen, 48 h
SR = tested on: SR
MDA-MB-435 = tested on: MDA-MB-435
OVCAR-3 = tested on: OVCAR-3
NCI-H23 = tested on: NCI-H23
UO-31 = tested on: UO-31
T47D = tested on: T47D
MCF7 = tested on: MCF7
UACC-62 = tested on: UACC-62
CAKI-1 = tested on: CAKI-1
HCC 2998 = tested on: HCC 2998
BT-549 = tested on: BT-549
ACHN = tested on: ACHN
786-0 = tested on: 786-0
CCRF-CEM = tested on: CCRF-CEM
A549 = tested on: A549
MOLT-4 = tested on: MOLT-4
OVCAR-4 = tested on: OVCAR-4
SW-620 = tested on: SW-620
RXF 393 = tested on: RXF 393

| Compound | GI50 (SR) | GI50 (MDA-MB-435) | GI50 (OVCAR-3) | GI50 (NCI-H23) | GI50 (UO-31) | GI50 (T47D) | GI50 (MCF7) | GI50 (UACC-62) | GI50 (CAKI-1) | GI50 (HCC 2998) | GI50 (BT-549) | GI50 (ACHN) | GI50 (786-0) | GI50 (CCRF-CEM) | GI50 (A549) | GI50 (MOLT-4) | GI50 (OVCAR-4) | GI50 (SW-620) | GI50 (RXF 393) |
| --- | --- | --- | --- | --- | --- | --- | --- | --- | --- | --- | --- | --- | --- | --- | --- | --- | --- | --- | --- |
| CCOC(=O)P(=O)(O)c1ccc(N(C)Cc2ccccc2)cc1 | > 100 µM (inactive) | > 100 µM (inactive) | > 100 µM (inactive) | > 100 µM (inactive) | > 100 µM (inactive) | > 100 µM (inactive) | > 100 µM (inactive) | > 100 µM (inactive) | > 100 µM (inactive) | > 100 µM (inactive) | > 100 µM (inactive) | > 100 µM (inactive) | > 100 µM (inactive) | > 100 µM (inactive) | > 100 µM (inactive) | > 100 µM (inactive) | > 100 µM (inactive) | > 100 µM (inactive) | – |
| O=[N+]([O-])c1cccc(-c2ncc3c(n2)-c2ccccc2C3)c1 | > 100 µM (inactive) | > 100 µM (inactive) | – | > 100 µM (inactive) | > 100 µM (inactive) | > 100 µM (inactive) | > 100 µM (inactive) | > 100 µM (inactive) | 42.7 µM (inactive) | – | > 100 µM (inactive) | > 100 µM (inactive) | 22.9 µM (inactive) | > 100 µM (inactive) | > 100 µM (inactive) | > 100 µM (inactive) | > 100 µM (inactive) | > 100 µM (inactive) | 95.1 µM (inactive) |
| C/C(=N\Nc1ccc([N+](=O)[O-])cc1[N+](=O)[O-])c1ccc2ccccc2n1 | 97.9 µM (inactive) | > 100 µM (inactive) | – | > 100 µM (inactive) | 51.4 µM (inactive) | > 100 µM (inactive) | 89.9 µM (inactive) | 66.2 µM (inactive) | 58.9 µM (inactive) | – | 53.6 µM (inactive) | 42.8 µM (inactive) | 78.3 µM (inactive) | – | 57.5 µM (inactive) | > 100 µM (inactive) | – | > 100 µM (inactive) | > 100 µM (inactive) |
| COc1cc2oc3ccccc3c(=O)c2cc1CSc1ccccc1N | 5.2 µM (inactive) | 2.47 µM (inactive) | 18.5 µM (inactive) | 29.9 µM (inactive) | – | 7.85 µM (inactive) | 13.6 µM (inactive) | 9.71 µM (inactive) | 35.9 µM (inactive) | 5.24 µM (inactive) | 29.3 µM (inactive) | 19.5 µM (inactive) | 35.9 µM (inactive) | 4.94 µM (inactive) | 23.4 µM (inactive) | 4.83 µM (inactive) | 13.6 µM (inactive) | 6.81 µM (inactive) | 11 µM (inactive) |
| CC1C(OS(=O)(=O)c2ccc3nc(S)sc3c2)CC2C3(C)CCC2(C(C)C(=O)O)C(O)C13 (stereo unspecified) | 11.9 µM (inactive) | 17.2 µM (inactive) | 14.5 µM (inactive) | 17.9 µM (inactive) | 17.4 µM (inactive) | 21.2 µM (inactive) | 27.6 µM (inactive) | 21.9 µM (inactive) | 22 µM (inactive) | 35.6 µM (inactive) | 24.9 µM (inactive) | 15.9 µM (inactive) | 20.2 µM (inactive) | 3.85 µM (inactive) | 21.7 µM (inactive) | 16.9 µM (inactive) | 18.6 µM (inactive) | – | 21.7 µM (inactive) |
| CCCCCCc1cc2cc(C(=O)NCc3ccccc3)c(=N)oc2cc1O | > 100 µM (inactive) | > 100 µM (inactive) | > 100 µM (inactive) | > 100 µM (inactive) | – | > 100 µM (inactive) | > 100 µM (inactive) | > 100 µM (inactive) | > 100 µM (inactive) | > 100 µM (inactive) | > 100 µM (inactive) | > 100 µM (inactive) | > 100 µM (inactive) | > 100 µM (inactive) | > 100 µM (inactive) | > 100 µM (inactive) | > 100 µM (inactive) | > 100 µM (inactive) | > 100 µM (inactive) |
| OCCSCCCSCCO | 39.9 µM (inactive) | > 10 µM (inactive) | > 100 µM (inactive) | > 100 µM (inactive) | > 100 µM (inactive) | > 100 µM (inactive) | > 100 µM (inactive) | > 100 µM (inactive) | – | > 100 µM (inactive) | > 100 µM (inactive) | – | > 100 µM (inactive) | 36.8 µM (inactive) | > 100 µM (inactive) | 32.1 µM (inactive) | > 100 µM (inactive) | > 100 µM (inactive) | – |
| Cn1c(N)c(/C=N/NC(=O)CC#N)c(=O)n(C)c1=O | > 100 µM (inactive) | > 100 µM (inactive) | > 100 µM (inactive) | – | > 100 µM (inactive) | > 100 µM (inactive) | > 100 µM (inactive) | > 100 µM (inactive) | > 100 µM (inactive) | > 100 µM (inactive) | > 100 µM (inactive) | > 100 µM (inactive) | > 100 µM (inactive) | > 100 µM (inactive) | > 100 µM (inactive) | > 100 µM (inactive) | > 100 µM (inactive) | > 100 µM (inactive) | > 100 µM (inactive) |
| CCOC(=O)c1sc(=S)n(-c2ccc(Cl)cc2)c1-n1cc(-c2ccccc2)c(C#N)c1N | 17.4 µM (inactive) | 41 µM (inactive) | 13.7 µM (inactive) | 21.8 µM (inactive) | – | 13.1 µM (inactive) | 15.7 µM (inactive) | 24.8 µM (inactive) | > 100 µM (inactive) | 34.2 µM (inactive) | 23.7 µM (inactive) | 16.7 µM (inactive) | 11 µM (inactive) | 31.8 µM (inactive) | 18.8 µM (inactive) | > 100 µM (inactive) | 8.85 µM (inactive) | 53 µM (inactive) | 15.4 µM (inactive) |
| Cc1ccc(/N=N/C(=O)NNc2ccc(C)c([N+](=O)[O-])c2)cc1[N+](=O)[O-] | 18.9 µM (inactive) | 36.5 µM (inactive) | 28.1 µM (inactive) | 30.2 µM (inactive) | 15.2 µM (inactive) | 4.45 µM (inactive) | 23.2 µM (inactive) | 13.9 µM (inactive) | 18.8 µM (inactive) | 17.4 µM (inactive) | 30.8 µM (inactive) | 24.8 µM (inactive) | 28.2 µM (inactive) | 19.2 µM (inactive) | 28.8 µM (inactive) | 12.5 µM (inactive) | 19.4 µM (inactive) | 41 µM (inactive) | – |
| Cc1ccc(C)n1-n1c(-c2ccccc2)n[nH]c1=O | 51.9 µM (inactive) | 21.2 µM (inactive) | > 100 µM (inactive) | – | > 100 µM (inactive) | > 100 µM (inactive) | > 100 µM (inactive) | > 100 µM (inactive) | > 100 µM (inactive) | 87.7 µM (inactive) | > 100 µM (inactive) | > 100 µM (inactive) | > 100 µM (inactive) | > 100 µM (inactive) | > 100 µM (inactive) | > 100 µM (inactive) | > 100 µM (inactive) | > 100 µM (inactive) | > 100 µM (inactive) |
| COc1ccc2[nH]c(CCNC(=O)c3cc([N+](=O)[O-])cc([N+](=O)[O-])c3)cc2c1 | > 100 µM (inactive) | > 100 µM (inactive) | > 100 µM (inactive) | 47.9 µM (inactive) | > 100 µM (inactive) | 29.9 µM (inactive) | 69.3 µM (inactive) | 36.1 µM (inactive) | 26.1 µM (inactive) | – | > 100 µM (inactive) | – | 21.2 µM (inactive) | > 100 µM (inactive) | > 100 µM (inactive) | > 100 µM (inactive) | > 100 µM (inactive) | > 100 µM (inactive) | 18.1 µM (inactive) |
| COCCOC(=O)c1c(C)[n+]([O-])c2cc(Cl)c(Cl)cc2[n+]1[O-] | 4.76 µM (inactive) | 17.5 µM (inactive) | 13.4 µM (inactive) | 19.8 µM (inactive) | 0.311 µM (active) | 4.68 µM (inactive) | 11.1 µM (inactive) | 14.8 µM (inactive) | 19 µM (inactive) | – | 19.1 µM (inactive) | 12.7 µM (inactive) | 22.6 µM (inactive) | 9.29 µM (inactive) | 12.7 µM (inactive) | 13.1 µM (inactive) | 14.4 µM (inactive) | 20 µM (inactive) | 30.4 µM (inactive) |
| O=C(O)c1nc2cc(C(F)(F)F)ccc2[nH]c1=O | > 100 µM (inactive) | > 100 µM (inactive) | > 100 µM (inactive) | > 100 µM (inactive) | 60.8 µM (inactive) | > 100 µM (inactive) | > 100 µM (inactive) | > 100 µM (inactive) | > 100 µM (inactive) | > 100 µM (inactive) | > 100 µM (inactive) | > 100 µM (inactive) | > 100 µM (inactive) | > 100 µM (inactive) | > 100 µM (inactive) | > 100 µM (inactive) | > 100 µM (inactive) | > 100 µM (inactive) | – |
| CC(=O)NCC1OC2COC(c3ccccc3)OC2C2N=C(c3ccccc3)OC12 (stereo unspecified) | – | 85.3 µM (inactive) | 76 µM (inactive) | > 100 µM (inactive) | 39.9 µM (inactive) | 19.1 µM (inactive) | 41.9 µM (inactive) | 45.7 µM (inactive) | > 100 µM (inactive) | 66.5 µM (inactive) | 68.1 µM (inactive) | 45.5 µM (inactive) | > 100 µM (inactive) | 35.4 µM (inactive) | 37.8 µM (inactive) | 43.2 µM (inactive) | 85.9 µM (inactive) | 80.9 µM (inactive) | 41.7 µM (inactive) |
| O=C(NC12CC3CC(CC(C3)C1)C2)n1cnc2cncnc21 | 24.4 µM (inactive) | 31.3 µM (inactive) | 18.2 µM (inactive) | 37.8 µM (inactive) | 91.2 µM (inactive) | 20.6 µM (inactive) | 27.5 µM (inactive) | 39.2 µM (inactive) | 28.4 µM (inactive) | 35.6 µM (inactive) | 46.8 µM (inactive) | 34.8 µM (inactive) | 50.1 µM (inactive) | 26.5 µM (inactive) | 47.5 µM (inactive) | 33.3 µM (inactive) | – | 39.8 µM (inactive) | 26.5 µM (inactive) |
